The text below walks through data of PMC8607797 (Nature chemical biology, 2021).

Type in all cases: cell-based
The target in one experiment is T1, Ephx1 (Mus musculus, UniProt Q9D379).
T1 sequence (Q9D379 1-455): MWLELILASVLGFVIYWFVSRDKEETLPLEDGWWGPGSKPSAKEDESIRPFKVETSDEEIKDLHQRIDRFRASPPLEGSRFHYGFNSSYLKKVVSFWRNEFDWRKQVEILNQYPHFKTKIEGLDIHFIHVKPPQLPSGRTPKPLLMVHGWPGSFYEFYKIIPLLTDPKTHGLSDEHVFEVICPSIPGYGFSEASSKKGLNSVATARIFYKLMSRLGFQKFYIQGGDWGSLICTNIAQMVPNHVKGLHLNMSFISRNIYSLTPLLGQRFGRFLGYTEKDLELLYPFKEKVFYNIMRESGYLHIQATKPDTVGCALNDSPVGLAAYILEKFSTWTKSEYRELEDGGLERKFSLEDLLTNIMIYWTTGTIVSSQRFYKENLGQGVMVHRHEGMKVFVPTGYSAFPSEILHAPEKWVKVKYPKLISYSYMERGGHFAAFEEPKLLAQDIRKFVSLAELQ
In words: live-cell chemoproteomic competition of probe […].

Another experiment has as its target T2, Cav1 (Mus musculus, UniProt P49817).
T2 sequence (P49817 2-178): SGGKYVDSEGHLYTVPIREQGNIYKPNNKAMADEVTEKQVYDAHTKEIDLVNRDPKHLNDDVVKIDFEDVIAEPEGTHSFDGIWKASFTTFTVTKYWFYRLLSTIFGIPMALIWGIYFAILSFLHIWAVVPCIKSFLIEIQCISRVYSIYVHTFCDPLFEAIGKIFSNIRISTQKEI
In words: live-cell chemoproteomic competition of probe […].

The next experiment addresses T3, Tmem97 (σ2 receptor) (Mus musculus, UniProt Q8VD00).
T3 sequence (Q8VD00 1-176): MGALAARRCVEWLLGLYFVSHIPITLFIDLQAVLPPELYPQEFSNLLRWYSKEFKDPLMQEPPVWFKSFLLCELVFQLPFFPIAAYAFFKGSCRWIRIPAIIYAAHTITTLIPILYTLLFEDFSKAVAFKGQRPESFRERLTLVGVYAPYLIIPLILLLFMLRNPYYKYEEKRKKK
Nature of the experiment: live-cell competition of probe […] labeling, in-gel fluorescence.

Regarding `CC(C)CCC[C@](C)(O)[C@H]1CC[C@H]2[C@@H]3CC=C4C[C@@H](O)CC[C@]4(C)[C@H]3CC[C@@]21C` [compound 1, 20(S)-hydroxycholesterol], the “live-cell chemoproteomic competition of probe 2 (TMT MS)” value on Ephx1 was “The most competable proteins encompassed the highly enriched targets Tmem97, Ephx1, and Cav1”; at Cav1, “The most competable proteins encompassed the highly enriched targets Tmem97, Ephx1, and Cav1”.

In the case of `CC(C)CCC[C@@](C)(O)[C@H]1CC[C@H]2[C@@H]3CC=C4C[C@@H](O)CC[C@]4(C)[C@H]3CC[C@@]21C` [compound 13, 20(R)-hydroxycholesterol], the “live-cell competition of probe 2 labeling, in-gel fluorescence” value at Tmem97 (σ2 receptor) was found to be 50% competition at 50.
